Source: US20210393547A1, “USE OF EMODIN IN TREATING RETINAL ISCHEMIA OR A DISEASE, CONDITION, OR DISORDER ASSOCIATED WITH RETINAL ISCHEMIA” (priority 2020, published 2021)

Assays:
Type in all cases: in vivo, rat
VEGF = test: Western blot of ischemic retina, VEGF to β-actin ratio; conditions: n=6, mean±S.E
Method: (§1) Emodin was purchased from Sigma-Aldrich (E7881; 90%; storage at 2-8° C.; from Frangula bark; St. Louis, Mo., United States). Drug administration for different procedures, namely ERG, fluorogold RGC labelling, cresyl violet retinal staining and Western blot assays, were described in Tables 3 to 6. Vehicle or emodin (5 μL) was administered via an intravitreous injection route so that these agents were then able to be directly diffused to the target. Emodin was dissolved in vehicle (DMSO:distilled water=1:3). The defined final cellular concentrations of administered drug were 0.25 or 0.5 μM, which were achieved after 40 times dilution from the stock concentrations, namely 10 or 20 μM, based on an arbitrary definition of the vitreous volume as 200 μL. To test a wider range of dose-response, 4 μM of emodin was thus added in the animal experiments. […] Denatured proteins were then obtained using lysis buffer (mammalian protein extraction reagent; […]), the samples were then sonicated and quantified to give equivalent amounts of 30 μg/30 μl/well. […] Finally, the PVDF membranes were then developed using an enhanced chemiluminescent analysis system ([…]) and scanned using an imager (Amersham Imager; LifeSciences); the amount of each protein was quantified according to scanning densitometry.

β-catenin = test: Western blot of ischemic retina, β-catenin to β-actin ratio; conditions: n=6, mean±S.E
Method: as §1

[1] = test system: retinal ganglion cells (RGC) in ischemic retina of Wistar rats; test: Retrograde fluorogold labeling of RGCs after retinal ischemia/reperfusion; conditions: n=4, mean±SE
Method: Emodin was purchased from Sigma-Aldrich (E7881; 90%; storage at 2-8° C.; from Frangula bark; St. Louis, Mo., United States). Drug administration for different procedures, namely ERG, fluorogold RGC labelling, cresyl violet retinal staining and Western blot assays, were described in Tables 3 to 6. Vehicle or emodin (5 μL) was administered via an intravitreous injection route so that these agents were then able to be directly diffused to the target. Emodin was dissolved in vehicle (DMSO:distilled water=1:3). The defined final cellular concentrations of administered drug were 0.25 or 0.5 μM, which were achieved after 40 times dilution from the stock concentrations, namely 10 or 20 μM, based on an arbitrary definition of the vitreous volume as 200 μL. To test a wider range of dose-response, 4 μM of emodin was thus added in the animal experiments. The Vehicle+IR and Emo+IR groups (pre-ischemic administration of emodin 4, 10 or 20 μM) were subjected to following the experimental procedures; these were initial pre-ischemic intravitreous injection (vehicle or emodin), retinal ischemia induction 1 day later, and sacrifice of the animal on the following day to allow the various post-mortem procedures except ERG. […] Finally, the samples were then analyzed by fluorescent microscopy. The RGC density was defined as the total RGC amount divided by the whole retinal area and its mean was then calculated.

In the case of `Cc1cc(O)c2c(c1)C(=O)c1cc(O)cc(O)c1C2=O` [emodin, 6-methyl-1,3,8-trihydroxyanthraquinone], the “ratio of VEGF to β-actin protein level” value (VEGF; Emo10+IR: pre-ischemic intravitreous 10 μM emodin, Sham normalized to 1, Vehicle+IR 7.67) is reported as 3.99±2.86, the “ratio of VEGF to β-actin protein level” value (VEGF; Emo20+IR: pre-ischemic intravitreous 20 μM emodin, P=0.03 vs Vehicle+IR, Sham normalized to 1) is reported as 1.23±0.44 and the “ratio of β-catenin to β-actin protein level” value (β-catenin; Emo10+IR: pre-ischemic intravitreous 10 μM emodin, Sham normalized to 1, Vehicle+IR 1.64) is reported as 1.18±0.24. For the same compound, the “ratio of β-catenin to β-actin protein level” value (β-catenin; Emo20+IR: pre-ischemic intravitreous 20 μM emodin, P=0.02 vs Vehicle+IR, Sham normalized to 1) was 1.00±0.19, the “RGC density (retrograde fluorogold labeled)” value ([1]; Emo10+IR: pre-ischemic intravitreous 10 μM emodin, P<0.01, Sham 5323.53, Vehicle+IR 2069.12) was 3345.59±206.80 /0.17 mm^2 and the “RGC density (retrograde fluorogold labeled)” value ([1]; Emo20+IR: pre-ischemic intravitreous 20 μM emodin, P<0.001) was 4623.53±179.48 /0.17 mm^2.
